Measurements taken from US10329289B2, “6,7-dihydro-5H-pyrrolo[3,4-B]pyridin-5-one allosteric modulators of the M4 muscarinic acetylcholine receptor” (Merck Sharp & Dohme Corp., priority 2015, dated 2019).

Biological target: T1, human M4 muscarinic acetylcholine receptor (Homo sapiens, UniProt P08173)
T1 construct: expressed in transfected cells; host or cells: CHO-K1
T1 sequence (P08173 1-479): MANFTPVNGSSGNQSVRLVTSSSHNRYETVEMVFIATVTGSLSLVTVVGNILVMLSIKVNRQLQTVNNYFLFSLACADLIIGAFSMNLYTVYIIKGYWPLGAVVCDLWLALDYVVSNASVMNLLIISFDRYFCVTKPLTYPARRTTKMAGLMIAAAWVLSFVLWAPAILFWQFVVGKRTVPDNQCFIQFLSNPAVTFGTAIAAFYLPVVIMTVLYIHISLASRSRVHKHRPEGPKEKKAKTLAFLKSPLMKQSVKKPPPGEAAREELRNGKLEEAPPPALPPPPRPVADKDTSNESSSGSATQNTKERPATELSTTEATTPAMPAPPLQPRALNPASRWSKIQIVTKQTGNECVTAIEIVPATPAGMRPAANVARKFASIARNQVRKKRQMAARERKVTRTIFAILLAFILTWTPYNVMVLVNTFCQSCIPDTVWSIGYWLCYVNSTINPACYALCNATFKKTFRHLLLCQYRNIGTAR
Assay: human FLIPR-based M4 PAM assay (Ca2+ mobilization, CHO-K1 cells with human M4 receptor and Gαqi5)
Format: cell-based
Details: acetylcholine at 20% of maximum response, read-out: M4 PAM IP
Method in brief: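 CHO-K1 cells stably expressing human M4 and chimeric Gαqi5 were dye-loaded ~1 h at 37 °C and read for Ca2+ fluorescence. Compound followed by acetylcholine at an EC20 (sometimes an EC70 third addition); inflection point from a 4-parameter logistic fit.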

SMILES	EC50
Cc1cc2c(nc1N1CCC(Oc3ccccn3)CC1)CNC2=O [Example 131, 3-methyl-2-(4-(pyridin-2-yloxy)piperidin-1-yl)-6,7-dihydro-5H-pyrrolo[3,4-b]pyridin-5-one]	1520 nM
Cc1cc2c(nc1N1CCC(Oc3ccc4c(c3)OCCO4)CC1)CNC2=O [Example 132, 2-(4-((2,3-dihydrobenzo[b][1,4]dioxin-6-yl)oxy)piperidin-1-yl)-3-methyl-6,7-dihydro-5H-pyrrolo[3,4-b]pyridin-5-one]	30 nM
Cc1cc2c(nc1N1CCC(Oc3ccc4c(c3)OCC(=O)N4)CC1)CNC2=O [Example 133, 7-((1-(3-methyl-5-oxo-6,7-dihydro-5H-pyrrolo[3,4-b]pyridin-2-yl)piperidin-4-yl)oxy)-2H-benzo[b][1,4]oxazin-3(4H)-one]	611 nM
Cc1ccc(OC2CCN(c3nc4c(cc3C)C(=O)NC4)CC2)cc1F [Example 134, 2-(4-(3-fluoro-4-methylphenoxy)piperidin-1-yl)-3-methyl-6,7-dihydro-5H-pyrrolo[3,4-b]pyridin-5-one]	167 nM
Cc1cc2c(nc1N1CCC(Oc3ccc4c(c3)C(=O)N(C)CC4)CC1)CNC2=O [Example 138, 2-methyl-7-((1-(3-methyl-5-oxo-6,7-dihydro-5H-pyrrolo[3,4-b]pyridin-2-yl)piperidin-4-yl)oxy)-3,4-dihydroisoquinolin-1(2H)-one]	390 nM
Cc1cc2c(nc1N1CCC(Oc3ccc4c(c3)C(=O)CO4)CC1)CNC2=O [Example 139A, 3-methyl-2-(4-((3-oxo-2,3-dihydrobenzofuran-5-yl)oxy)piperidin-1-yl)-6,7-dihydro-5H-pyrrolo[3,4-b]pyridin-5-one]	628 nM
Cc1cc2c(nc1N1CCC(Oc3ccn4ccnc4c3)CC1)CNC2=O [Example 140, 2-(4-(imidazo[1,2-a]pyridin-7-yloxy)piperidin-1-yl)-3-methyl-6,7-dihydro-5H-pyrrolo[3,4-b]pyridin-5-one]	4710 nM
Cc1cc2c(nc1N1CCC(Oc3cn[nH]c3)CC1)CNC2=O [Example 142, 2-(4-((1H-pyrazol-4-yl)oxy)piperidin-1-yl)-3-methyl-6,7-dihydro-5H-pyrrolo[3,4-b]pyridin-5-one]	270 nM
Cc1cc2c(nc1N1CCC(Oc3ccc(O[C@H](C)CO)nc3)CC1)CNC2=O [Example 143B, (R)-2-(4-((6-((1-hydroxypropan-2-yl)oxy)pyridin-3-yl)oxy)piperidin-1-yl)-3-methyl-6,7-dihydro-5H-pyrrolo[3,4-b]pyridin-5-one]	117 nM
Cc1cc2c(nc1N1CCC(Oc3ccc4c(c3)CNC4)CC1)CNC2=O [Example 147, 2-(4-(isoindolin-5-yloxy)piperidin-1-yl)-3-methyl-6,7-dihydro-5H-pyrrolo[3,4-b]pyridin-5-one]	313 nM
Cc1cc2c(nc1N1CCC(Oc3ccc4c(c3)OCCN4)CC1)CNC2=O [Example 148, 2-(4-((3,4-dihydro-2H-benzo[b][1,4]oxazin-7-yl)oxy)piperidin-1-yl)-3-methyl-6,7-dihydro-5H-pyrrolo[3,4-b]pyridin-5-one]	31 nM
Cc1cc2c(nc1N1CCC(Oc3ccnc(CO)c3)CC1)CNC2=O [Example 152, 2-(4-((2-(hydroxymethyl)pyridin-4-yl)oxy)piperidin-1-yl)-3-methyl-6,7-dihydro-5H-pyrrolo[3,4-b]pyridin-5-one]	1150 nM
Cc1cc2c(nc1N1CCC(Oc3ccc4c(c3)c(C)nn4CCO)CC1)CNC2=O [Example 153, 2-(4-((1-(2-hydroxyethyl)-3-methyl-1H-indazol-5-yl)oxy)piperidin-1-yl)-3-methyl-6,7-dihydro-5H-pyrrolo[3,4-b]pyridin-5-one]	528 nM
Cc1cc2c(nc1N1CCC(Oc3ccc4c(c3)OC[C@H]4CCO)CC1)CNC2=O [Example 154, (S)-2-(4-((3-(2-hydroxyethyl)-2,3-dihydrobenzofuran-6-yl)oxy)piperidin-1-yl)-3-methyl-6,7-dihydro-5H-pyrrolo[3,4-b]pyridin-5-one]	128 nM
Cc1cc2c(nc1N1CCC(Oc3ccc(CO)nc3)CC1)CNC2=O [Example 155, 2-(4-((6-(hydroxymethyl)pyridin-3-yl)oxy)piperidin-1-yl)-3-methyl-6,7-dihydro-5H-pyrrolo[3,4-b]pyridin-5-one]	117 nM
Cc1cc2c(nc1N1CCC(Oc3cncc(CO)c3)CC1)CNC2=O [Example 156, 2-(4-((5-(hydroxymethyl)pyridin-3-yl)oxy)piperidin-1-yl)-3-methyl-6,7-dihydro-5H-pyrrolo[3,4-b]pyridin-5-one]	1220 nM
Cc1cc2c(nc1N1CCC(Oc3ccc4c(c3)CC[C@H]4CCO)CC1)CNC2=O [Example 157B, (S)-2-(4-((1-(2-hydroxyethyl)-2,3-dihydro-1H-inden-5-yl)oxy)piperidin-1-yl)-3-methyl-6,7-dihydro-5H-pyrrolo[3,4-b]pyridin-5-one]	144 nM
Cc1cc2c(nc1N1CCC(Oc3ccc4c(c3)COC4)CC1)CNC2=O [Example 159, 2-[4-(1,3-Dihydro-2-benzofuran-5-yloxy)piperidin-1-yl]-3-methyl-6,7-dihydro-5H-pyrrolo[3,4-b]pyridin-5-one]	28 nM

Further compounds by falling EC50, results first:

EC50	SMILES
3470 nM	Cc1cc2c(nc1N1CCC(Oc3cnc4c(c3)oc(=O)n4C)CC1)CNC2=O [Example 136, 3-methyl-6-((1-(3-methyl-5-oxo-6,7-dihydro-5H-pyrrolo[3,4-b]pyridin-2-yl)piperidin-4-yl)oxy)oxazolo[4,5-b]pyridin-2(3H)-one]
2160 nM	Cc1cc2c(nc1N1CCC(Oc3cnc4c(c3)NCCO4)CC1)CNC2=O [Example 145, 2-(4-((2,3-dihydro-1H-pyrido[2,3-b][1,4]oxazin-7-yl)oxy)piperidin-1-yl)-3-methyl-6,7-dihydro-5H-pyrrolo[3,4-b]pyridin-5-one]
1090 nM	Cc1cc2c(nc1N1CCC(Oc3ccc4c(c3)c(C)nn4C)CC1)CNC2=O [Example 129, 2-(4-((1,3-dimethyl-1H-indazol-5-yl)oxy)piperidin-1-yl)-3-methyl-6,7-dihydro-5H-pyrrolo[3,4-b]pyridin-5-one]
1000 nM	Cc1nc2cc(OC3CCN(c4nc5c(cc4C)C(=O)NC5)CC3)ccc2[nH]1 [Example 149, 3-methyl-2-(4-((2-methyl-1H-benzo[d]imidazol-5-yl)oxy)piperidin-1-yl)-6,7-dihydro-5H-pyrrolo[3,4-b]pyridin-5-one]
515 nM	Cc1cc2c(nc1N1CCC(Oc3ccc4c(c3)CN(C(=O)OC(C)(C)C)CC4)CC1)CNC2=O [Example 137, tert-butyl 7-((1-(3-methyl-5-oxo-6,7-dihydro-5H-pyrrolo[3,4-b]pyridin-2-yl)piperidin-4-yl)oxy)-3,4-dihydroisoquinoline-2(1H)-carboxylate]
316 nM	Cc1cc2c(nc1N1CCC(Oc3ccc4c(c3)CCNC4)CC1)CNC2=O [Example 144, 3-Methyl-2-(4-((1,2,3,4-tetrahydroisoquinolin-6-yl)oxy)piperidin-1-yl)-6,7-dihydro-5H-pyrrolo[3,4-b]pyridin-5-one]
286 nM	Cc1cc2c(nc1N1CCC(Oc3ccc4c(c3)CNCC4)CC1)CNC2=O [Example 146, 3-methyl-2-(4-((1,2,3,4-tetrahydroisoquinolin-7-yl)oxy)piperidin-1-yl)-6,7-dihydro-5H-pyrrolo[3,4-b]pyridin-5-one]
231 nM	COC(=O)c1cc2c(nc1N1CCC(Oc3ccc(OC)nc3)CC1)CNC2=O [Example 160, methyl 2-(4-((6-methoxypyridin-3-yl)oxy)piperidin-1-yl)-5-oxo-6,7-dihydro-5H-pyrrolo[3,4-b]pyridine-3-carboxylate]
217 nM	Cc1cc2c(nc1N1CCC(Oc3ccc4c(c3)C(=O)NCC4)CC1)CNC2=O [Example 135, 7-((1-(3-methyl-5-oxo-6,7-dihydro-5H-pyrrolo[3,4-b]pyridin-2-yl)piperidin-4-yl)oxy)-3,4-dihydroisoquinolin-1(2H)-one]
106 nM	Cc1cc2c(nc1N1CCC(Oc3cnn(C)c3)CC1)CNC2=O [Example 139, 3-methyl-2-(4-((1-methyl-1H-pyrazol-4-yl)oxy)piperidin-1-yl)-6,7-dihydro-5H-pyrrolo[3,4-b]pyridin-5-one]
105 nM	Cc1cc2c(nc1N1CCC(Oc3ccc4c(c3)C(C)(C)CO4)CC1)CNC2=O [Example 130, 2-(4-((3,3-dimethyl-2,3-dihydrobenzofuran-5-yl)oxy)piperidin-1-yl)-3-methyl-6,7-dihydro-5H-pyrrolo[3,4-b]pyridin-5-one]
101 nM	Cc1cc2c(nc1N1CCC(Oc3ccc(O[C@@H](C)CO)nc3)CC1)CNC2=O [Example 143A, (S)-2-(4-((6-((1-hydroxypropan-2-yl)oxy)pyridin-3-yl)oxy)piperidin-1-yl)-3-methyl-6,7-dihydro-5H-pyrrolo[3,4-b]pyridin-5-one]
93 nM	Cc1cc2c(nc1N1CCC(Oc3ccc4c(c3)CC[C@@H]4CCO)CC1)CNC2=O [Example 157A, (R)-2-(4-((1-(2-hydroxyethyl)-2,3-dihydro-1H-inden-5-yl)oxy)piperidin-1-yl)-3-methyl-6,7-dihydro-5H-pyrrolo[3,4-b]pyridin-5-one]
32 nM	Cc1cc2c(nc1N1CCC(Oc3ccc(CO)cc3)CC1)CNC2=O [Example 151, 2-(4-(4-(hydroxymethyl)phen-oxy)piperidin-1-yl)-3-methyl-6,7-dihydro-5H-pyrrolo[3,4-b]pyridin-5-one]
